Measured values: PubChem BioAssay AID488823 (NMMLSC, 2010)

System: S. cerevisiae LAP4-GFP strain, flow cytometry fluorescence
Test: LAP4-GFP modulation potency, analog picks, SAR follow-up, cell-based, cherry pick 3, flow cytometry (AID 488823)

EC50: 5.38 µM
Structure (SMILES): Cc1ccc2c(Cl)cc(Cl)c(O)c2n1
